Assay results from paper PMC12657321, “Pre-clinical evaluation of a potent and effective Pin1-degrading agent in pancreatic cancer” (Molecular Therapy Oncology, 2025).
Non-standard residues stand in square brackets, D forms with d. Residues, ends and D or L forms follow the SMILES beside them. *: point of attachment. Trp(6-Cl) = N[C@@H](Cc1c[nH]c2cc(Cl)ccc12)C(=O)O; Pip = O=C(O)[C@@H]1CCCCN1; ClAc = O=C(CCl)*

What was measured:
[1] = Stability in plasma from Black 6-Cg mice; assay type: in vitro ADME; settings: Black 6-Cg (B6-Cg), mouse, 37°C, up to 6 h, acetonitrile quench, LC-MS/MS
Protocol: (§1) A solution of a Pin1 inhibitor was spiked into blank plasma at 1 μg/mL in various solutions, including an aqueous buffer (1× phosphate-buffered saline; Fisher Scientific, Fair Lawn, NJ), human plasma (Innovative Research Inc., Novi, MI), wild-type mouse plasma (Innovative Research Inc., Novi, MI), plasma form esterase-deficient mice (City of Hope, Duarte, CA), and plasma from Black 6-Cg mice (City of Hope, Duarte, CA).
(§2) The spiked plasma samples were incubated at 37°C for up to 6 h. At each designated time point, a 20 μL aliquot of the incubation sample was removed and quenched in 100 μL of acetonitrile. At the end of the incubation, the quenched samples were vortexed and centrifuged for 10 min at 4°C and 20,000 × g. The resulting supernatant was reconstituted and analyzed by LC-MS/MS.
(§3) Table S2. Stability half-life of agents reported in Table 1 after incubation at 37 °C in various media. Acq represents aqueous buffer composed of 1x phosphate buffered saline (Fisher Scientific, Fair Lawn, NJ); human represents human plasma (Innovative Research Inc., Novi, MI); mouse wt represents wild type mouse plasma (Innovative Research Inc., Novi, MI); mouse ES1e represents plasma form esterase deficient mice (City of Hope, Duarte, CA); mouse B6-Cg represents plasma from black 6-Cg mice (City of Hope, Duarte, CA). See Figure 1 for the chemical structures of these compounds.
(§4) Compound Acq Human Mouse Mouse ES1e Mouse

[2] = Stability in aqueous buffer (1x PBS); assay type: physicochemical; settings: 1x phosphate buffered saline, 1 μg/mL, 37°C, up to 6 h, acetonitrile quench, LC-MS/MS
Protocol: as §1, §2, §3, §4

[3] = Wild-type mouse plasma stability; assay type: in vitro ADME; settings: 37°C, up to 6 h, acetonitrile quench, LC-MS/MS, values given in min, read-out: Stability half-life, Mouse WT (converted)
Protocol: as §1, §2, §3, §4

[4] = Stability in plasma from esterase-deficient (ES1e) mice; assay type: in vitro ADME; settings: mouse, 37°C, up to 6 h, acetonitrile quench, LC-MS/MS
Protocol: as §1, §2, §3, §4

Human plasma stability = assay type: in vitro ADME; settings: 37°C, up to 6 h, acetonitrile quench, LC-MS/MS
Protocol: as §1, §2, §3, §4

SMILES | half-life at 1 μg/mL [1] [h] | Stability half-life, Acq (aqueous buffer) [2] [h] | half-life at 1 μg/mL [3] [h] | half-life at 1 μg/mL [4] [h] | half-life at 1 μg/mL (Human plasma stability) [h]
NC(=O)[C@H](Cc1c[nH]c2ccccc12)NC(=O)[C@@H]1CCCCN1C(=O)[C@H](Cc1c[nH]c2cc(Cl)ccc12)NC(=O)CCl [158H9] (ClAc-[Trp(6-Cl)]-[Pip]-Trp-NH2) | > 5 | > 5 | ~0.5 | > 5 | ~3
NC(=O)[C@H](Cc1c[nH]c2ccc(F)cc12)NC(=O)[C@@H]1CCCCN1C(=O)[C@@H]1Cc2c([nH]c3ccccc23)CN1C(=O)CCl [164A10] | ~2.5 | > 5 | < 0.167 | ~2.5 | ~2.5
